Paper PMC10725991, “Kaempferol is a novel antiviral agent against channel catfish virus infection through blocking viral attachment and penetration in vitro” (Frontiers in Veterinary Science, 2023)

Experiments:
CCV in CCO cells [1] = experiment: Virus penetration assay; type: cell-based, Channel catfish virus (CCV, Ictalurid herpesvirus 1); conditions: kaempferol 15 μg/mL, 24 h
Protocol: Confluent CCO cells in 24-well plates were prechilled at 4°C, and then infected with CCV at 4°C for 1 h. After triple washing with pre-cooled PBS, the cells were treated with kaempferol (15 μg/mL) or medium at 28°C for 4 h. The compound dilutions were aspirated and the cells were rinsed with citrate buffer (pH 3.0) in order to inactivate and remove not penetrated virus. After incubated at 28°C for 24 h, the cells were collected for subsequent experiments, including RT-qPCR and viral titer.
Measurement of viral titer was described previously ([5]). In brief, CCO cells were cultured in 96-well plates, and they were infected with 10-fold serially diluted samples that were collected previously. At 72 h post-infection, the cells were directly observed under an inverted microscope. […]
For RT-qPCR, the total RNA was isolated from CCV-infected cells using RnaExTM (Trizol)^a reagent (GENERAY, China), and reversed transcribed applying a HiScript III RT SuperMix with gDNA wiper (Vazyme, China) following the manufacturer’s instructions. Quantitative PCR was performed with a LightCycler 96 Real-Time PCR Detection System (Roche, USA) using ChamQ Universal SYBR qPCR Master Mix (Vazyme, China) with the following cycle conditions: 95°C for 30 s, followed by 40 cycles of 95°C for 10 s and 60°C for 30 s. […] Fold changes of the selected gene vs 18 s (internal reference) were calculated by the 2^−△△Ct method. […]

CCV in CCO cells [2] = experiment: Liquid plaque assay; type: cell-based, Channel catfish virus (CCV; conditions: Ictalurid herpesvirus 1; kaempferol 10 μg/mL, 36 h; read-out: inhibition of viral plaque formation
Protocol: For analyzing the CPE reduction of viral infected CCO cells by kaempferol, the CCO cells were seeded in 24-well plates and cultured overnight at 28°C before infection. Then, the monolayer cells were infected with CCV at 10^3 TCID50/ml for 1 h. Subsequently, the infected cells were treated with kaempferol at different concentrations (2.5, 5, 7.5, 10, 12.5, and 15 μg/mL), respectively. The CCO cells without CCV and drug treatment were set as mock control whereas the virus-infected cells without compound treatment were set as CCV control. Each sample was directly observed and photographed under an inverted microscope at 24 and 36 h post-infection. Meanwhile, the plaque assay was performed as described in previous studies with slight modifications ([34]). Briefly, confluent cells in 24-well plates were infected with CCV (10^3 TCID50/ml) for 1 h. Subsequently, the inoculums were removed and the kaempferol with different concentrations (2.5, 5, 7.5, 10, 12.5, and 15 μg/mL) was added and remained throughout the experiment. The cells were fixed and stained with 1% crystal violet and then photographed at 36 h post-infection.
Figure 4 CPE and plaque reduction in CCO cells treated with kaempferol. (A) The cells were incubated with different concentrations of kaempferol (2.5, 5.0, 7.5, 10, 12.5 and 15.0 μg/mL) after CCV infection 1 h. […]

[3] = test system: CCV (strain VR-665) in CCO cells; experiment: Anti-CCV replication assay of kaempferol, RT-qPCR; type: cell-based, Channel catfish virus (CCV, Ictalurid herpesvirus 1)
Protocol: The CCO cells were infected with the CCV at 10^3 TCID50/ml at 28°C for 1 h. Then, the cell culture medium was replaced using isopycnic DMEM medium containing various concentrations kaempferol (2.5, 5, 7.5, 10, 12.5, and 15 μg/mL). The cells without exposure to kaempferol and CCV were set as the mock control. CCV-infected cells served as a negative control. 24 and 36 h post-infection, the cells were collected and subjected to the RT-qPCR and western blot analysis for the viral gene and protein expression. Meanwhile, the cells were treated as described above for the determination of virus titer. […]
For RT-qPCR, the total RNA was isolated from CCV-infected cells using RnaExTM (Trizol)^a reagent (GENERAY, China), and reversed transcribed applying a HiScript III RT SuperMix with gDNA wiper (Vazyme, China) following the manufacturer’s instructions. Quantitative PCR was performed with a LightCycler 96 Real-Time PCR Detection System (Roche, USA) using ChamQ Universal SYBR qPCR Master Mix (Vazyme, China) with the following cycle conditions: 95°C for 30 s, followed by 40 cycles of 95°C for 10 s and 60°C for 30 s. […] Fold changes of the selected gene vs 18 s (internal reference) were calculated by the 2^−△△Ct method.
Figure 3 The anti-CCV activity by different concentration of kaempferol in vitro. […] The p value was determined by *p < 0.05, **p < 0.01.

## O=c1c(O)c(-c2ccc(O)cc2)oc2cc(O)cc(O)c12 [Kaempferol]
CCV in CCO cells [1]; 4 h at 28°C
  down-regulation of viral internalization (CCV ORF 39/ORF 59, RT-qPCR) vs CCV control: more than 50%
CCV in CCO cells [1]
  production of intracellular virus (virus titer), penetration assay: significantly reduced
CCV in CCO cells [2]
  inhibition at 10 µg/mL: ~100%
[3]; 24 h post viral infection, kaempferol 2.5-15 μg/mL, RT-qPCR
  inhibitory effect of CCV-ORF 39 and CCV-ORF 59: over 85%
[3]; 36 h post viral infection, kaempferol 10 μg/mL to 15 μg/mL
  viral mRNA levels compared with the control group: significantly lower
